Paper PMC6941952, “A homogeneous bioluminescent immunoassay to probe cellular signaling pathway regulation” (Communications Biology, 2020)
Where “and” joins values, the source holds several entries; their conditions need not be identical. Equal entries are not always repeated.

System: total IκBα
Test: NanoBiT cell-based immunoassay, total IκBα in MCF-7 cells
Set-up: species or system human
Conditions: for IkB degradation (% compared to no IKK16), Average / IkB degradation (% compared to no IKK16) / Non-Treated/Treated / Raw data / Subtract reagent background: TNF; for IkB degradation (% compared to no IKK16), Average: average of replicates; for IkB degradation (% compared to no IKK16) / Non-Treated/Treated / Raw data / Subtract reagent background: single replicates
Summary of the method: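 Cells were lysed in 0.1% digitonin buffer, then target protein was detected with two primary antibodies plus NanoBiT detection antibodies (90 min, 23 °C), read as luminescence minus reagent background. For pSTAT3, A431 cells were serum-starved overnight before inhibitor and stimulator. For IκBα, MCF-7 cells got inhibitor for 60 min before TNFα. IC50 came from variable-slope sigmoidal fits.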

[1] = MCF-7 cells, IKK16 0.000762939 uM
[2] = MCF-7 cells, IKK16 0.00305176 uM
[3] = MCF-7 cells, IKK16 0.0488281 uM

Structure (SMILES): O=C(c1ccc(Nc2nccc(-c3cc4ccccc4s3)n2)cc1)N1CCC(N2CCCC2)CC1 [IKK16]
- Total IkB Raw data (Figure 3a and 3b): 147500 and 141100 and 148400
- Total IkB Subtract reagent background (Figure 3a and 3b): 129800 and 128900 and 122500
- Total IkB Average (Figure 3a and 3b, background subtracted): 127067
- TNFα-induced reduction of total IκBα protein (MCF-7 cells, 10 µM 1 h, TNFα 50 ng per ml 10 min): abolished
- IkB degradation (% compared to no IKK16), Average [1]: 98.1%
- IkB degradation (% compared to no IKK16) [1]: 101% and 97% and 93%
- Non-Treated/Treated [1]: 4.060 and 4.672 and 4.565 and 4.365
- Raw data [1]: 21820 and 22100 and 21310 and 21710
- Subtract reagent background [1]: 13931 and 13141 and 13541 and 13651
- IkB degradation (% compared to no IKK16), Average [2]: 96.3%
- IkB degradation (% compared to no IKK16) [2]: 103% and 93% and 95% and 94%
- Non-Treated/Treated [2]: 4.119 and 4.303 and 4.479 and 4.413
- Raw data [2]: 21670 and 21900 and 22440 and 21970
- Subtract reagent background [2]: 13731 and 14271 and 13801 and 13501
- IkB degradation (% compared to no IKK16), Average (MCF-7 cells, IKK16 0.012207 uM): 97.0%
- IkB degradation (% compared to no IKK16) (MCF-7 cells, IKK16 0.012207 uM): 101% and 95% and 99% and 94%
- Non-Treated/Treated (MCF-7 cells, IKK16 0.012207 uM): 4.063 and 4.367 and 4.623 and 4.410
- Raw data (MCF-7 cells, IKK16 0.012207 uM): 21680 and 22090 and 22230 and 21540
- Subtract reagent background (MCF-7 cells, IKK16 0.012207 uM): 13921 and 14061 and 13371 and 13511
- IkB degradation (% compared to no IKK16), Average [3]: 102.5%
- IkB degradation (% compared to no IKK16) [3]: 101% and 107% and 103% and 99%
- Non-Treated/Treated [3]: 4.060 and 4.927 and 4.840 and 4.651
- Raw data [3]: 20980 and 22100 and 20630 and 20940
- Subtract reagent background [3]: 13931 and 12461 and 12771 and 12811
- IkB degradation (% compared to no IKK16), Average (MCF-7 cells, IKK16 0.195312 uM): 98.7%
- IkB degradation (% compared to no IKK16) (MCF-7 cells, IKK16 0.195312 uM): 99% and 97% and 98% and 100%
- Non-Treated/Treated (MCF-7 cells, IKK16 0.195312 uM): 3.986 and 4.488 and 4.616 and 4.698
- Raw data (MCF-7 cells, IKK16 0.195312 uM): 20850 and 22360 and 21850 and 21560
- Subtract reagent background (MCF-7 cells, IKK16 0.195312 uM): 14191 and 13681 and 13391 and 12681
- IkB degradation (% compared to no IKK16), Average (MCF-7 cells, IKK16 0.78125 uM): 84.0%
- IkB degradation (% compared to no IKK16) (MCF-7 cells, IKK16 0.78125 uM): 86% and 82% and 85%
- Non-Treated/Treated (MCF-7 cells, IKK16 0.78125 uM): 3.457 and 3.811 and 3.985 and 3.866
- Raw data (MCF-7 cells, IKK16 0.78125 uM): 23580 and 24530 and 24280 and 23680
- Subtract reagent background (MCF-7 cells, IKK16 0.78125 uM): 16361 and 16111 and 15511 and 15411
- IkB degradation (% compared to no IKK16), Average (MCF-7 cells, IKK16 3.125 uM): 40.0%
- IkB degradation (% compared to no IKK16) (MCF-7 cells, IKK16 3.125 uM): 42% and 41% and 39% and 38%
- Non-Treated/Treated (MCF-7 cells, IKK16 3.125 uM): 1.686 and 1.873 and 1.836 and 1.807
- Raw data (MCF-7 cells, IKK16 3.125 uM): 41140 and 41710 and 40950 and 41840
- Subtract reagent background (MCF-7 cells, IKK16 3.125 uM): 33541 and 32781 and 33671 and 32971
- IC50 (MCF-7 cells, pretreated 1 h, then TNFα 50 ng per ml 30 min, read-out: IC50, inhibition of TNFα induced degradation of IκBα): 1440 nM
